Holding throughout (type): biochemical
In one experiment the target is T1, Akt2 (Homo sapiens, UniProt P31751).
T1 construct: a middle T tag was added to the 5′ end of the full length Akt2; middle T tag (EYMPME) (N); biotin tag (from pS2neo vector); made in house; host or cells: Drosophila S2 cells
In words: Akt kinase assay, phosphorylation of GSK3-derived peptide. To be noted: GSK3 peptide substrate. The text has this:
(§1) The ^33P-labeled biotinylated product can be captured and detected using Streptavidin coated Flashplates (NEN LifeSciences) or Streptavidin Membrane Filter Plates (Promega).
(§2) GSK3α (S21) Peptide #3928, biotin-[…] PG (SEQ.ID.NO.: 15), FW=1517.8 (obtained from Macromolecular Resources) for Streptavidin Flashplate or Streptavidin Filter Plate detection.
(§3) GSK3α (S21) Peptide #G80613, […] (SEQ.ID.NO.: 16), FW=1547.8 (obtained from Research Genetics) for Phosphocellulose filter plate detection.
(§4) The reactions were then incubated at room temperature for 45 minutes.
(§5) 200 μl of stopped reaction was transferred to a Streptavidin Flashplate® PLUS (NEN Life Sciences, catalog no. SMP103). The plate was incubated for ≧10 minutes at room temperature on a plate shaker. The contents of each well was aspirated, and the wells rinsed 2 times with 200 μl TBS per well. The wells were then washed 3 times for 5 minutes with 200 μl TBS per well with the plates incubated at room temperature on a platform shaker during wash steps.
(§6) The plates were covered with sealing tape and counted using the Packard TopCount with the appropriate settings for counting [^33P] in Flashplates.
(§7) The enzymatic reactions as described in Step I of the Streptavidin Flash Plate Assay above were performed.
(§8) The reaction was stopped by adding 20 μl of 7.5M Guanidine Hydrochloride.
(§9) The plate was then washed using a vacuum manifold as follows: 1) 4×200 μl/well of 2M NaCl; 2) 6×200 μl/well of 2M NaCl with 1% H3PO4; 3)2×200 μl/well of diH20; and 4)2×100 μl/well of 95% Ethanol. The membranes were then allowed to air dry completely before adding scintillant.
(§10) The bottom of the plate was sealed with white backing tape, 30 μl/well of Microscint 20 (Packard Instruments, catalog no. 6013621) was added. The top of the plate was sealed with clear sealing tape, and the plate then counted using the Packard TopCount with the appropriate settings for [^33P] with liquid scintillant.
(§11) The enzymatic reactions were performed as described in Step 1 of the Streptavidin Flash Plate Assay (above) utilizing […] (SEQ.ID. NO.: 16) as the substrate in place of biotin-[…].
(§12) The reaction was stopped by adding 20 μl of 0.75% H3PO4.
(§13) The bottom of the plate was sealed with white backing tape, then 30 μl/well of Microscint 20 was added. The top of the plate was sealed with clear sealing tape, and the plate counted using the Packard TopCount with the appropriate settings for [^33P] and liquid scintillant.

The next experiment has as its target T2, active human Akt1 (Homo sapiens, UniProt P31749).
T2 construct: purchased Upstate Biotechnology 14-276
The description is as above. The note with it: GSK3 peptide substrate; read-out: GSK3 Peptide Substrate IC50 (μM) Akt-1.
Description: as §1, §2, §3, §4, §5, §6, §7, §8, §9, §10, §11, §12, §13

Another experiment has as its target T3, Akt3 (Homo sapiens, UniProt Q9Y243).
T3 construct: a middle T tag was added to the 5′ end of the full length Akt3 clone; middle T tag (EYMPME) (N); biotin tag (from pS2neo vector); made in house; host or cells: Drosophila S2 cells
The experiment is described as above. The note with it: GSK3 peptide substrate. How it is done:
as §1, §4, §5, §6, §7, §8, §9
The top of the plate was sealed with clear sealing tape, and the plate then counted using the Packard TopCount with the appropriate settings for [^33P] with liquid scintillant. […]

The target of another experiment is T4, PKA catalytic subunit (Bos taurus, UniProt P00517).
T4 construct: purchased UBI (Upstate Biotechnology) 14-114
In words: PKA assay (counter screen), Kemptide phosphorylation. The note with it: read-out: Counter screens IC50 (μM) PKA. On the procedure: Each individual PKA assay consists of the following components:
1) 10 μl 5× PKA assay buffer (200 mM Tris pH7.5, 100 mM MgCl2, 5 mM 2-mercaptoethanol, 0.5 mM EDTA)
2) 10 μl of a 50 μM stock of Kemptide (Sigma) diluted into water
3) 10 μl ^33P-ATP (prepared by diluting 1.0 μl ^33P-ATP [10 mCi/ml] into 200 μl of a 50 μM stock of unlabeled ATP)
4) 10 μl appropriate solvent control dilution or inhibitor dilution
Assays were assembled in 96 deep-well assay plates. Components #3 and #4 were premixed and in a separate tube, a mixture containing equal volumes of components #1, #2, and #5 was prepared. The assay reaction was initiated by adding 30 μl of the components #1, #2, and #5 mixture to wells containing ^33P-ATP and inhibitor. The liquid in the assay wells was mixed and the assay reactions incubated for 20 minutes at room temperature. The reactions were stopped by adding 50 μl 100 mM EDTA and 100 mM sodium pyrophosphate and mixing.
The enzyme reaction product (phosphorylated Kemptide) was quantitated using p81 phosphocellulose 96 well filter plates (Millipore). Each well of a p81 filter plate was fill with 75 mM phosphoric acid. The wells were aspirated and 170 μl of 75 mM phosphoric acid was added to each well. […] The peptide was trapped on filter following the application of a vacuum. The filters were washed 5× by filling wells with 75 mM phosphoric acid followed by aspiration. After the final wash, the filters were allowed to air dry. 30 μl scintillation fluid was added to each well and the filters counted on a TopCount (Packard).
A general note: The purpose of a counterscreen is to sort out artefacts and off-target activity.

For the next experiment, the system named is PKC (mix of isoforms). The experiment is described as follows: PKC assay (counter screen), myelin basic protein phosphorylation. The note with it: read-out: Counter screens IC50 (μM) PKC. How it is done:
Each PKC assay consists of the following components:
1) 5 μl 10×PKC co-activation buffer (2.5 mM EGTA, 4 mM CaCl2)
2) 10 μl 5×PKC activation buffer (1.6 mg/ml phosphatidylserine, 0.16 mg/ml diacylglycerol, 100 mM Tris pH 7.5, 50 mM MgCl, 5 mM 2-mercaptoethanol)
3) 5 μl ^33P-ATP (prepared by diluting 1.0 μl ^33P-ATP [10 mCi/nil] into 100 μl of a 100 μM stock of unlabeled ATP)
4) 10 μl of a 350 μg/ml stock of myelin basic protein (MBP, UBI) diluted in water
5) 10 μl appropriate solvent control or inhibitor dilution
Final assay concentrations were as follows: 0.25 mM EGTA, 0.4 mM CaCl, 20 mM Tris pH 7.5, 10 mM MgCl, 1 mM 2-mercaptoethanol, 0.32 mg/ml phosphatidylserine, 0.032 mg/mil diacylglycerol, 10 μM 33P-ATP, 70 μg/ml MBP, 10 ng/ml PKC, 0.1 mg/ml BSA.
Assays are performed using 96 deep well assay plates. In each assay well 10 μl of solvent control or appropriate inhibitor dilution with 5 μl ^33P-ATP (components #5 and #3) were premixed. […] The liquid in the assay wells was thoroughly mixed and the assay reactions incubated for 20 minutes at room temperature. The reactions were stopped by adding 100 mM EDTA (50 μl) and 100 mM sodium pyrophosphate (50 μl) and mixing. Phosphorylated MBP was collected on PVDF membranes in 96 well filter plates and quantitated by scintillation counting.

A further experiment has as its target T5, delta PH-Akt1 (Homo sapiens, UniProt P31749).
T5 construct: PCR deletion mutagenesis was done using the full length Akt1 gene in the pS2neo vector as template; middle T tag (EYMPME) (N); biotin tag (from pS2neo vector); made in house; host or cells: Drosophila S2 cells
The experiment is described as follows: Akt kinase assay, phosphorylation of GSK3-derived peptide (PH domain deleted mutant). To be noted: GSK3 peptide substrate; Akt1 lacking PH domain; read-out: GSK3 Peptide Substrate IC50 (μM) Akt-1 delta PH.
Description: For the expression of a pleckstrin homology domain (PH ) deleted (Δ aa 4-129, which includes deletion of a portion of the Akt1 hinge region) version of Akt1, PCR deletion mutagenesis was done using the full length Akt1 gene in the pS2neo vector as template. […] The final PCR product was digested with KpnI and SmaI and ligated into the pS2neo full length Akt1 KpnI/Sma I cut vector, effectively replacing the 5′ end of the clone with the deleted version.
as §1, §2, §3, §4, §5, §6, §7, §8, §9, §10, §11, §12, §13

T5 sequence (P31749 with tags, fused parts or gaps): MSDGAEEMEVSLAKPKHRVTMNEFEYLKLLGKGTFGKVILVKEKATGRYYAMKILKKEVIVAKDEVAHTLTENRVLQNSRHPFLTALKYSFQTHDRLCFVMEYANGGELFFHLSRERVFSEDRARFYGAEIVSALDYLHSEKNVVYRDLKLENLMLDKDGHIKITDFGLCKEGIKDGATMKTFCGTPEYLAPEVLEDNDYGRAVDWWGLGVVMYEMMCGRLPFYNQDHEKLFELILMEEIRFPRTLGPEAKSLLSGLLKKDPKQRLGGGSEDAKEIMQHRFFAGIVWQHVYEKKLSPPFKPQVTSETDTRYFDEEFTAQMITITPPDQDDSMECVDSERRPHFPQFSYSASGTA
T1 sequence (P31751 whole entry): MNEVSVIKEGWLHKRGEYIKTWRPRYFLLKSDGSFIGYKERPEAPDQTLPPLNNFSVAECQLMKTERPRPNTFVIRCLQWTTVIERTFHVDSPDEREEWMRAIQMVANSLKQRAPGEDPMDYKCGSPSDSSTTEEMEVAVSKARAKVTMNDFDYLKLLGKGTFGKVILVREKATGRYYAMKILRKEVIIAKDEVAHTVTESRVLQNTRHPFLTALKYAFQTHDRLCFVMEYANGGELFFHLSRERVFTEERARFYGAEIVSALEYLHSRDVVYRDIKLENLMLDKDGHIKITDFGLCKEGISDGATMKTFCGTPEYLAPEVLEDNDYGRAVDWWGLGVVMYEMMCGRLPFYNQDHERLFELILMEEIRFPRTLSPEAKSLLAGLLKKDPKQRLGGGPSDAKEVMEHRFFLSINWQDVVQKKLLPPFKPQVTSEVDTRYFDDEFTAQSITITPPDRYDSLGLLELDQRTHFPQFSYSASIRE
T2 sequence (P31749 whole entry): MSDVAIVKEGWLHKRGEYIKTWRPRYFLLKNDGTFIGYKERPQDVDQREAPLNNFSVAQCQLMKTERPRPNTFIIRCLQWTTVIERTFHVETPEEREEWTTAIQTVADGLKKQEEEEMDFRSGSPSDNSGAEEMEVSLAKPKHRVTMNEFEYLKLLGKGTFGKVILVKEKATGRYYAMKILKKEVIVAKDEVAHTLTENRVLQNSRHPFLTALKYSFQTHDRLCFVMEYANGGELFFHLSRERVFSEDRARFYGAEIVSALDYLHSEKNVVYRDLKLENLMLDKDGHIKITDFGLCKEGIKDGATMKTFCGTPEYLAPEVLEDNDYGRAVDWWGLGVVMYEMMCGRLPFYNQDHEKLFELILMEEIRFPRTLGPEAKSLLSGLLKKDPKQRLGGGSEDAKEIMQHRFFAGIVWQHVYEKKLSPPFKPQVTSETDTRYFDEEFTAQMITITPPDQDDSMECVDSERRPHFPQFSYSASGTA
T3 sequence (Q9Y243 whole entry): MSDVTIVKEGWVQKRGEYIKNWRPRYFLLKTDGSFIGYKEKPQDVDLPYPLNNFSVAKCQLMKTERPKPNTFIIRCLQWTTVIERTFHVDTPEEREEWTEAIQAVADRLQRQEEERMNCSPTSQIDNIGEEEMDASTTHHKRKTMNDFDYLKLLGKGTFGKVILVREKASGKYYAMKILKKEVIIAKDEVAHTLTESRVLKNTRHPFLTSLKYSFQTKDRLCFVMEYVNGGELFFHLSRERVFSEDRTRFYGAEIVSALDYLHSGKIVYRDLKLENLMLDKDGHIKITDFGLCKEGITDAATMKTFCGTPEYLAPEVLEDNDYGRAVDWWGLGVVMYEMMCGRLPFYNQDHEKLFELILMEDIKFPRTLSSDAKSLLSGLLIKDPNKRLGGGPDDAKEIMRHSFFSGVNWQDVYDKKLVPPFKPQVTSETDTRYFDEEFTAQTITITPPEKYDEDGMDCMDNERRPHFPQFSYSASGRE

Consider `CN(C)CC(C)(C)CNc1nn2c(-c3cc(F)cc(F)c3)nnc2cc1C1CCC1` [Compound 2, N′-(7-Cyclobutyl-3-(3,5-difluoro-phenyl)-[1,2,4]triazolo[4,3-b]pyridazin-6-yl)-2,2,N,N-tetramethyl-propane-1,3-diamine], for which the IC50 against Akt2 is > 50 µM; on active human Akt1 it was 0.42 µM; at Akt3 it was > 50 µM; at PKA catalytic subunit it was > 40 µM; in the experiment on PKC (mix of isoforms), > 40 µM; on delta PH-Akt1, > 50 µM.

As to `CN(C)CC(C)(C)CNc1nn2c(-c3ccccc3)nnc2cc1C1CCC1` [Compound 1, N′-(7-Cyclobutyl-3-phenyl-[1,2,4]triazolo[4,3-b]pyridazin-6-yl)-2,2,N,N-tetramethyl-propane-1,3-diamine], the IC50 is > 50 µM against Akt2; 1.4 µM at active human Akt1; > 50 µM against Akt3; > 40 µM on PKA catalytic subunit; > 40 µM with PKC (mix of isoforms); > 50 µM on delta PH-Akt1.

Regarding `COc1ccc(-c2nnc3c4ccccc4c(NCC(C)(C)CN(C)C)nn23)cc1` [Compound 7, N′-[3-(4-Methoxy-phenyl)-[1,2,4]triazolo[4,3-a]phthalazin-6-yl)-2,2,N,N-tetramethyl-propane-1,3-diamine], the IC50 against Akt2 was > 50 µM; on active human Akt1, 3.88 µM; on Akt3, > 50 µM; on PKA catalytic subunit it was > 40 µM; in the experiment with PKC (mix of isoforms) it was > 40 µM; on delta PH-Akt1 it was > 50 µM.

With `Nc1ccc(-c2nc3ccccc3nc2-c2ccc(N)cc2)cc1` [Compound 11, 2,3-bis(4-aminophenyl)-quinoxaline], the IC50 on Akt2 was 45 µM; at active human Akt1, 6.1 µM; against Akt3 it was > 100 µM; on PKA catalytic subunit, > 80 µM; in the experiment with PKC (mix of isoforms), > 80 µM; on delta PH-Akt1 it was > 50 µM.

`CN(C)CC(C)(C)CNc1nn2c(-c3ccccc3)nnc2c2ccccc12` [Compound 6, 2,2,N,N-tetramethyl-N-(3-phenyl-[1,2,4]triazolo[3,4-a]phthalazin-6-yl)-propane-1,3-diamine]: the IC50 against Akt2 was > 50 µM; at active human Akt1 it was 10.5 µM; against Akt3, > 50 µM; on PKA catalytic subunit, > 40 µM; in the experiment with PKC (mix of isoforms) it was > 40 µM; at delta PH-Akt1, > 50 µM.

Consider `CN(C)CC(C)(C)CNc1nn2c(-c3ccc(F)c(F)c3)nnc2cc1C1CCC1` [Compound 3, N′-(7-Cyclobutyl-3-(3,4-difluoro-phenyl)-[1,2,4]triazolo[4,3-b]pyridazin-6-yl)-2,2,N,N-tetramethyl-propane-1,3-diamine], for which the IC50 against Akt2 was > 50 µM; on active human Akt1 it was 0.91 µM; at Akt3 it was > 50 µM; on PKA catalytic subunit, > 40 µM; with PKC (mix of isoforms) it was > 40 µM; at delta PH-Akt1 it was > 50 µM.

For the molecule “6-(2-Hydroxybutyl)oxy-3,7-diphenyl-[1,2,4]triazolo[4,3-b]pyridazine [Compound 9]”, the IC50 was > 50 µM on Akt2; 4.65 µM at active human Akt1; > 50 µM at Akt3; > 40 µM at PKA catalytic subunit; > 40 µM with PKC (mix of isoforms); > 50 µM at delta PH-Akt1.

Regarding `CN(C)CC(C)(C)CNc1nn2c(-c3ccc(F)cc3)nnc2cc1C1CCC1` [Compound 4, N′-(7-Cyclobutyl-3-(4-fluoro-phenyl)-[1,2,4]triazolo[4,3-b]pyridazin-6-yl)-2,2,N,N-tetramethyl-propane-1,3-diamine], the IC50 is > 50 µM against Akt2; 2.03 µM at active human Akt1; > 50 µM against Akt3; > 40 µM on PKA catalytic subunit; > 40 µM in the experiment on PKC (mix of isoforms); > 50 µM at delta PH-Akt1.

Regarding `CN(C)CC(C)(C)CNc1nn2c(-c3cccc(F)c3)nnc2cc1C1CCC1` [Compound 5, N′-(7-Cyclobutyl-3-(3-fluoro-phenyl)-[1,2,4]triazolo[4,3-b]pyridazin-6-yl)-2,2,N,N-tetramethyl-propane-1,3-diamine], the IC50 at Akt2 was > 50 µM; at active human Akt1, 0.4 µM; at Akt3, > 50 µM; at PKA catalytic subunit, > 40 µM; in the experiment on PKC (mix of isoforms), > 40 µM; at delta PH-Akt1, > 50 µM.

`OCCOc1nn2c(-c3ccccc3)nnc2cc1-c1ccccc1` [Compound 8, 6-(2-Hydroxyethyl)oxy-3 7-diphenyl-[1,2,4]triazolo[4,3-b]pyridazine]: the results for the IC50 at active human Akt1, at PKA catalytic subunit and with PKC (mix of isoforms) were 15.9 µM, > 40 µM and > 40 µM, respectively.

The record behind these values is US20040106540A1, “Method of treating cancer” (priority 2003, published 2004).
